Each structure is given as a SMILES string. Starred links: 1 amine or outer side, 2 acyl side, 3 side chain; linkers in the order of their positions; H or OH if unused. Positions of bridges follow the written chain, without caps; N, C: chain ends. Non-standard residues stand in square brackets, D forms with d. Residues, ends and D or L forms follow the SMILES beside them. *: point of attachment. hPhe(3,5-F2-4-CF3) = N[C@@H](CCc1cc(F)c(C(F)(F)F)c(F)c1)C(=O)O; NMeAbu(3,3-F2-piperidino) = CN[C@@H](CCN1CCCC(F)(F)C1)C(=O)O; hPhe(3-Cl-4-CF3) = N[C@@H](CCc1ccc(C(F)(F)F)c(Cl)c1)C(=O)O; hPhe(3-F,4-CF3) = N[C@@H](CCc1ccc(C(F)(F)F)c(F)c1)C(=O)O; hPhe(4-CF3) = N[C@@H](CCc1ccc(C(F)(F)F)cc1)C(=O)O; NMePhe(4-CN) = CN[C@@H](Cc1ccc(C#N)cc1)C(=O)O; NEtPhe(4-Me) = CCN[C@@H](Cc1ccc(C)cc1)C(=O)O; NMePhe(4-Cl) = CN[C@@H](Cc1ccc(Cl)cc1)C(=O)O; NMePhe(4-Me) = CN[C@@H](Cc1ccc(C)cc1)C(=O)O; NMedβ3hAla = C[C@H](CC(=O)[*:2])N(C)[*:1]; NMeGly(cPent) = CN[C@H](C(=O)O)C1CCCC1; Phe(3-I) = N[C@@H](Cc1cccc(I)c1)C(=O)O; NMeCha = CN[C@@H](CC1CCCCC1)C(=O)O; Hyp = O=C(O)[C@@H]1C[C@@H](O)CN1; NMeChg = CN[C@H](C(=O)O)C1CCCCC1; NMeF = CN[C@@H](Cc1ccccc1)C(=O)O; NMeI = CC[C@H](C)[C@H](NC)C(=O)O; NMeD = CN[C@@H](CC(=O)O)C(=O)O; NMeL = CN[C@@H](CC(C)C)C(=O)O; NMeNva = CCC[C@H](NC)C(=O)O; NMeV = CN[C@H](C(=O)O)C(C)C; d(β3hA) = C[C@@H](N)CC(=O)O; Ac6c = NC1(C(=O)O)CCCCC1; Morpholide = C1CN(*)CCO1; NMeA = CN[C@@H](C)C(=O)O; NMeAib = CNC(C)(C)C(=O)O; Piperidide = C1CCN(*)CC1; Pyrrolidide = C1CCN(*)C1; Ac5c = NC1(C(=O)O)CCCC1; Aze = O=C(O)[C@@H]1CCN1; Ac4c = NC1(C(=O)O)CCC1; Sar = CNCC(=O)O

T1 sequence (P01116 1-188 isoform P01116-2 G12D): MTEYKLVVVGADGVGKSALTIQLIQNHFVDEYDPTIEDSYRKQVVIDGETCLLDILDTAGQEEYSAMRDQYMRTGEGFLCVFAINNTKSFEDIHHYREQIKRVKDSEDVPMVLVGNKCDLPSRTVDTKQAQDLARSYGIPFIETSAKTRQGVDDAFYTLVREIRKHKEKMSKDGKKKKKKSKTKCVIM

This assay addresses T1, Kras and SOS1 (biotin-tagged human Kras loaded with GDP, His-tagged human SOS1) (Homo sapiens, UniProt P01116, G12D).
T1 construct: made in house; host or cells: E. coli (stated for Kras only)
Kind of assay: Protein-protein interaction inhibition between Kras and SOS1 (KrasGl2D-SOS PPI) using AlphaScreen. It counts as binding. The conditions noted are these: AlphaScreen; biotin-tagged human Kras loaded with GDP, His-tagged human SOS1; read-out: KRAS G12D-SOS PPI IC50. Here is the method:
Protein-Protein Interaction Inhibition Between Kras and SOS1 (KrasGl2D-SOS PPI) Using AlphaScreen
Protein-protein interaction inhibition (PPI) between Kras and SOS1 was measured by energy transfer from nickel-conjugated donor beads to streptavidin-conjugated acceptor beads using biotin-tagged human Kras expressed in E. coli and loaded with GDP after purification and His-tagged human SOS1 enzyme. This measurement utilizes the phenomenon in which donor beads are irradiated with light at 680 nm, such that energy is transferred to acceptor beads through singlet oxygen and light at 520-620 nm is detected from the acceptor beads.
Inhibition of binding between K-ras and SOS1 is known to inhibit signaling downstream of Kras.
In the case of `CC[C@H](C)[C@@H]1NC(=O)[C@H](CC(C)C)N(C)C(=O)C[C@@H](C(=O)N2CCCCC2)N(C)C(=O)[C@H](CC(C)C)NC(=O)C(C)(C)N(C)C(=O)[C@H](Cc2ccc(OC)cc2)NC(=O)[C@H](Cc2cccc(I)c2)NC(=O)CN(C)C(=O)[C@H](Cc2ccc(C)cc2)N(C)C(=O)[C@@H]2CCN2C(=O)CN(C)C1=O` [Compound 188] ([NMeL]I[Sar][Aze][NMePhe(4-Me)][Sar][Phe(3-I)]Y(Me)[NMeAib]L[NMeD]-Piperidide; lactam N-11), the IC50 – broadly, the point on the concentration scale where inhibition reaches its midpoint – amounted to 6.1 nM. Regarding `CCC[C@H]1C(=O)N(C)CC(=O)N[C@@H](CCc2ccc(C(F)(F)F)c(Cl)c2)C(=O)N2CCC[C@H]2C(=O)NC2(CCCC2)C(=O)N(C)[C@@H](C2CCCCC2)C(=O)N(C)[C@H](C(=O)N2CCCCC2)CC(=O)N(C)[C@@H](CC(C)C)C(=O)N[C@@H]([C@@H](C)CC)C(=O)N(C)CC(=O)N(C)CC(=O)N1C` [Compound 187] ([NMeL]I[Sar][Sar][NMeNva][Sar][hPhe(3-Cl-4-CF3)]P[Ac5c][NMeChg][NMeD]-Piperidide; lactam N-11), the IC50 turned out to be 3.2 nM. The value for `CC[C@H](C)[C@@H]1NC(=O)[C@H](C)N(C)C(=O)C[C@@H](C(=O)N2CCCCC2)N(C)C(=O)[C@H](C(C)C)N(C)C(=O)C2(CCCC2)NC(=O)[C@H](CCN2CCCC(F)(F)C2)N(C)C(=O)[C@H](CCc2ccc(C(F)(F)F)c(Cl)c2)NC(=O)CN(C)C(=O)[C@H](CC2CCCCC2)N(C)C(=O)[C@@H]2CCN2C(=O)[C@H](C)N(C)C1=O` [Compound 682] ([NMeA]I[NMeA][Aze][NMeCha][Sar][hPhe(3-Cl-4-CF3)][NMeAbu(3,3-F2-piperidino)][Ac5c][NMeV][NMeD]-Piperidide; lactam N-11) was 20 nM. In the case of `CC[C@H](C)[C@@H]1NC(=O)[C@H](C)N(C)C(=O)C[C@@H](C(=O)N2CCCC2)NC(=O)[C@H](CC(C)C)N(C)C(=O)[C@H](Cc2ccccc2)N(C)C(=O)[C@H](CC(C)C)N(C)C(=O)[C@H](CCc2ccc(C(F)(F)F)cc2)NC(=O)CN(C)C(=O)[C@H](Cc2ccc(Cl)cc2)N(C)C(=O)CN(C)C(=O)CN(C)C1=O` [Compound 199] ([NMeA]I[Sar][Sar][NMePhe(4-Cl)][Sar][hPhe(4-CF3)][NMeL][NMeF][NMeL]D-Pyrrolidide; lactam N-11), the IC50 came out at 36 nM. As for `CCO[C@@H]1C[C@H]2C(=O)NC3(CCC3)C(=O)N(C)[C@@H]([C@@H](C)CC)C(=O)N(C)[C@H](C)CC(=O)N(C)[C@@H](CC(C)C)C(=O)N[C@@H]([C@@H](C)CC)C(=O)N(C)[C@@H](C)C(=O)N3CC[C@H]3C(=O)N(CC)[C@@H](Cc3ccc(C)cc3)C(=O)N(C)CC(=O)N[C@@H](CCc3ccc(C(F)(F)F)c(Cl)c3)C(=O)N2C1` [Compound 626] (cyclo([Ac4c][NMeI][NMedβ3hAla][NMeL]I[NMeA][Aze][NEtPhe(4-Me)][Sar][hPhe(3-Cl-4-CF3)][Hyp](Et))), the figure is 2.4 nM. As for `CC[C@H](C)[C@@H]1NC(=O)[C@H](CC(C)C)N(C)C(=O)C[C@@H](C(=O)N2CCOCC2)N(C)C(=O)[C@H](C2CCCC2)N(C)C(=O)C2(CCCC2)NC(=O)[C@@H]2CCCN2C(=O)[C@H](CCc2cc(F)c(C(F)(F)F)c(F)c2)NC(=O)CN(C)C(=O)[C@H](Cc2ccc(C)cc2)N(CC)C(=O)[C@@H]2CCN2C(=O)[C@H](C)N(C)C1=O` [Compound 1368] ([NMeL]I[NMeA][Aze][NEtPhe(4-Me)][Sar][hPhe(3,5-F2-4-CF3)]P[Ac5c][NMeGly(cPent)][NMeD]-Morpholide; lactam N-11), the IC50 is 0.67 nM. With `CC[C@H](C)[C@@H]1NC(=O)[C@H](C)N(C)C(=O)C[C@@H](C)NC(=O)[C@H](C(C)C)N(C)C(=O)[C@H](Cc2ccccc2)N(C)C(=O)[C@H](CC(C)C)N(C)C(=O)[C@H](CCc2ccc(C(F)(F)F)cc2)NC(=O)CN(C)C(=O)[C@H](Cc2ccc(Cl)cc2)N(C)C(=O)CN(C)C(=O)[C@@H]2CCN2C1=O` [Compound 71] (cyclo([Aze][Sar][NMePhe(4-Cl)][Sar][hPhe(4-CF3)][NMeL][NMeF][NMeV][d(β3hA)][NMeA]I)), the IC50 amounted to 150 nM. As to `CC[C@H](C)[C@@H]1NC(=O)[C@H](CC(C)C)N(C)C(=O)C[C@@H](C)NC(=O)[C@H](CC(C)C)N(C)C(=O)C2(CCCCC2)NC(=O)[C@@H]2CCCN2C(=O)[C@H](CCc2ccc(C(F)(F)F)c(F)c2)NC(=O)CN(C)C(=O)[C@H](CC2CCCCC2)N(C)C(=O)CN(C)C(=O)CN(C)C1=O` [Compound 231] (cyclo([Ac6c][NMeL][d(β3hA)][NMeL]I[Sar][Sar][NMeCha][Sar][hPhe(3-F,4-CF3)]P)), the IC50 was found to be 120 nM. Take `CC[C@H](C)[C@@H]1NC(=O)[C@H](C)N(C)C(=O)C[C@@H](C(=O)N(C)C)N(C)C(=O)[C@H]([C@@H](C)CC)N(C)C(=O)C2(CCCC2)NC(=O)[C@H](Cc2ccc(C#N)cc2)N(C)C(=O)[C@H](CCc2ccc(C(F)(F)F)c(Cl)c2)NC(=O)CN(C)C(=O)[C@H](Cc2ccc(C)cc2)N(C)C(=O)[C@@H]2CCN2C(=O)[C@H](C)N(C)C1=O` [Compound 1959] ([NMeA]I[NMeA][Aze][NMePhe(4-Me)][Sar][hPhe(3-Cl-4-CF3)][NMePhe(4-CN)][Ac5c][NMeI][NMeD]-NMe2; lactam N-11): the IC50 stood at 5.2 nM.

Source of the values: patent US12371454B2, “Cyclic peptide compound having Kras inhibitory action” (priority 2019, dated 2025).
